Results published in publication PMC10123561 (Signal Transduction and Targeted Therapy, 2023).
Several values for one entry are separate records, joined by “and”; a condition that tells them apart may be missing. Equal values may be shown once. Entries after “also recorded” stand apart in the source; their conditions may differ. Where a name gives a salt, the structure may show the parent alone. Read-outs that look alike come from different tables or passages of the source.

Experiments:
wild type SARS-CoV-2 = assay: microbe, parasite or virus in culture; type: cell-based; conditions: mean ± sd
SARS-CoV-2 [1] = conditions: cited from earlier work
SARS-CoV-2 M^pro = SARS-CoV-2 M^pro (Severe acute respiratory syndrome coronavirus 2, UniProt P0DTD1); assay: biochemical
SARS-CoV-2 PL^pro = SARS-CoV-2 PL^pro (Severe acute respiratory syndrome coronavirus 2, UniProt P0DTD1); assay: SARS-CoV-2 PL^pro inhibition assay; type: biochemical; conditions: read-out: inhibition rate against papain-like protease (PL^pro)
SARS-CoV-2 RdRp complex = SARS-CoV-2 RdRp complex (Severe acute respiratory syndrome coronavirus 2, UniProt P0DTD1); assay: biochemical
[2] = tested on: SARS-CoV-2 strain 20SF107; type: in vivo, rhesus macaques
SARS-CoV-2 [3] = assay: Randomized open-label clinical trial in mild/moderate COVID-19 patients, efficacy; type: in vivo
[4] = male, rhesus monkey, in vivo
[5] = human, in vivo
cyclophilin A = biological target: cyclophilin A; set-up: method as in PMID 34677780; conditions: cited from earlier work
cathepsin L = conditions: read-out: IC50 against cathepsin L; cited from earlier work
[6] = tested on: SARS-CoV-2 spike mediated cell fusion; conditions: at 10 μM; cited from earlier work
inflammatory cytokines = conditions: at 2.5 μM; cited from earlier work
[7] = rats, 4 h after oral administration; cited from earlier work
[8] = cited from earlier work; for AUC0-∞: healthy human volunteers
[9] = HIV-infected patients; cited from earlier work
[10] = cited from earlier work
in vitro = conditions: African green monkey
[11] = twice daily, cited from earlier work
[12] = Lung distribution study in mouse; conditions: male, ICR, po
[13] = Pharmacokinetics in healthy rhesus macaques after nasogastric administration; conditions: 200 mg/kg nasogastric; for Cmax / AUC / MRT / half-life: rhesus monkey, plasma, 200 mg/kg
M^pro = conditions: read-out: Activity: IC50; cited from earlier work
[14] = Severe acute respiratory syndrome coronavirus 2, Vero C1008, Vero E6 cells
[15] = Severe acute respiratory syndrome coronavirus 2, Calu-3 cells
[16] = log-rank analysis, N = 5, NE = Not Evaluable

In the case of CCC(CC)COC(=O)[C@H](C)N[P@](=O)(OC[C@H]1O[C@@](C#N)(c2ccc3c(N)ncnn23)[C@H](O)[C@@H]1O)Oc1ccccc1 [Remdesivir], the EC50 (wild type SARS-CoV-2; [14]) is given as 1.01 ± 0.13 µM, the EC50 (wild type SARS-CoV-2; [15]) is given as 1.11 ± 0.17 µM and the “reduction of recovery time” value (SARS-CoV-2 [1]; hospitalized adults) is given as 5 days.
With Cc1c(O)cccc1C(=O)N[C@@H](CSc1ccccc1)[C@H](O)CN1C[C@H]2CCCC[C@H]2C[C@H]1C(=O)NC(C)(C)C [nelfinavir, Nelfinavir Mesylate] the IC50 (SARS-CoV-2 M^pro; IC50 against SARS-CoV-2 M^pro) was 23 µM and > 20 µM, the IC50 (SARS-CoV-2 M^pro; IC50 against SARS-CoV-2 main protease (M^pro)) was 8.26 µM and the EC50 (wild type SARS-CoV-2; [14]) was 2.93 ± 0.32 µM. For the same molecule, the EC50 (wild type SARS-CoV-2; [15]) was 1.86 ± 0.26 µM, the inhibition at 100 µM (SARS-CoV-2 PL^pro) was 33.3 ± 2.47% and the IC50 (SARS-CoV-2 RdRp complex) was 112 ± 8.2 µM. The “body weight change compared with control monkeys” value ([2]; 200 mg/kg prophylactic, twice daily) was “not significant”, the “body temperature compared with vehicle control monkeys” value ([2]; 200 mg/kg prophylactic, twice daily, […]) was “significantly lower” and the “viral loads in extrapulmonary tissues, e.g. colon and heart, compared with control group” value ([2]; […], no statistical difference) was “increasing trends”. The “reduction of viral replication in the lungs” value ([2]; at necropsy, prophylactic treatment) was “nearly three orders of magnitude; also recorded: approximately three orders of magnitude”, the “reduction of virus RNA in lung (left lower lobe) compared to vehicle-treated monkeys” value ([2]; rhesus monkey, in vivo) was 2.88 log and the “viral load in nasal swabs compared with control group” value ([2]; rhesus monkey, in vivo) was “Significant reductions; also recorded: significantly reduced; also recorded: significantly lower”. For the same molecule, the “viral load in rectal (anal) swabs compared with control group” value ([2]; rhesus monkey, in vivo) was “Significant reductions; also recorded: significantly reduced; also recorded: significantly lower”, the “viral load in throat swabs compared with control group” value ([2]; rhesus monkey, in vivo) was “without significance” and the “virus RNA in kidney samples” value ([2]; rhesus monkey, in vivo) was “could not be detected”. For the same molecule, the “proportion of subjects whose respiratory specimens were negative for SARS-CoV-2 RNA” value (SARS-CoV-2 [3]; 7th day of treatment, N = 19) was 31.6%, the “proportion of cases with fever” value (SARS-CoV-2 [3]; 9/19) was 47.4% and the “chest CT results of moderate COVID-19” value (SARS-CoV-2 [3]; 14th day of treatment) was “one patient was abnormal and had no clinical significance”. The “proportion of subjects whose respiratory specimens were negative for SARS-CoV-2 RNA” value (SARS-CoV-2 [3]; 14th day of treatment, N = 19) was 68.4%, the “progression to severe or critical pneumonia” value (SARS-CoV-2 [3]; 14th day of treatment, patients with mild COVID-19 (N = 5)) was “no subjects” and the “TTCR time (time to clinical recovery)” value (SARS-CoV-2 [3]; N = 5, control 11.0 days) was 7.0 days. The “shortening of duration of fever time versus control group” value (SARS-CoV-2 [3]; P = 0.014) was 3.8 days, the “shortening of median time for TTCR” value (SARS-CoV-2 [3]; P = 0.899) was 4.0 days and the “average fever days (duration of fever time) in patients with fever” value (SARS-CoV-2 [3]; control 6.6 ± 4.1 days, P = 0.014) was 2.8 days and 2.8 ± 1.6 days. For the same molecule, the “progression of subjects with mild disease to pneumonia” value (SARS-CoV-2 [3]; day 7 of treatment) was “did not progress to pneumonia”, the “time of TTCR, 25%(95%CI)” value (SARS-CoV-2 [3]; [16]) was 4.0(1.0~ NE) d and the “time of TTCR, 50%(95%CI)” value (SARS-CoV-2 [3]; [16]) was 7.0(1.0~ NE) d. The “time to convert to negative throat swab, 25%(95%CI)” value (SARS-CoV-2 [3]; log-rank analysis, N = 19) was 5.0(1.0~9.0) d, the “time to convert to negative throat swab, 50%(95%CI)” value (SARS-CoV-2 [3]; log-rank analysis, N = 19) was 9.0(5.0~11.0) d and the “time to convert to negative throat swab, 75%(95%CI)” value (SARS-CoV-2 [3]; log-rank analysis, N = 19) was 12.0(9.0~22.0) d. The “shortening of duration of viral shedding versus control group” value (SARS-CoV-2 [3]; median, P = 0.055) was 5.5 days, the “median time to convert to negative throat swab of SARS-CoV-2 (duration of viral shedding)” value (SARS-CoV-2 [3]; nelfinavir 1250 mg every 12 h, N = 19, control 14.5 days, P = 0.055) was 9.0 days and the “selectivity index (SI)” value (Vero E6 cells) was 17.59. For the same molecule, the “plasma concentration in infected relative to healthy rhesus macaques” value [4] was “around 1/6”, the “trough plasma concentration (Ctrough)” value [4] was 0.26 µM and the “plasma concentration at 5 h after dosing (C5h), average” value ([4]; 200 mg/kg) was 0.55 µM. For the same molecule, the “cases of grade 1 adverse events” value [5] was 15 cases, the death of illness [5] was “No patients died” and the “grade of adverse events during the trial” value [5] was “all grade 1”. For the same molecule, the “number of patients with grade 1 adverse events” value [5] was 10 patients, the “patients with abnormal sitting blood pressure, respiratory rate and pulse” value [5] was “no clinically significant patients” and the “proportion of patients with grade 1 adverse events” value [5] was 52.6%. The Kd (cyclophilin A) was 0.94 µM, the IC50 (cathepsin L) was 18 µM and the “inhibition of SARS-CoV-2 spike mediated cell fusion” value [6] was “completely inhibit”. For the same molecule, the “inhibition of inflammatory cytokines in vitro” value (inflammatory cytokines) was “successfully inhibit”, the lung-to-plasma ratio [7] was 3.24 and the “AUC0-∞” value ([8]; dosage of 100 mg) was 1250 ± 230 ng·h/mL. The “AUC0-∞” value ([8]; dosage of 800 mg) was 22208 ± 6306 ng·h/mL, the “plasma Ctrough,Morning” value ([8]; human, 1250 mg BID, ref VIRACEPT FDA Package Insert Reference ID: 3986049) was 3.87 µM and the Cmax ([8]; human, 1250 mg BID, ref VIRACEPT FDA Package Insert Reference ID: 3986049, read-out: plasma Cmax) was 7.04 µM. For the same molecule, the “Cmax in PBMCs relative to plasma” value [9] was ~ 15 fold, the “cellular accumulation in PBMCs relative to plasma” value [9] was 5.30 fold and the “concentration in the lung epithelial lining fluid versus plasma” value [10] was “comparable to that in plasma”. The “proportion of patients with detectable drug in bronchoalveolar lavage (BAL) fluid” value [10] was 100%, the “lung distribution in patients relative to plasma” value ([10]; human, in vivo) was “approximately three times as high as that of plasma” and the CC50 (in vitro) was 51.6 µM. The “maximum tolerated dosage (MTD)” value ([11]; adults with solid tumors) was 3125 mg, the “maximum tolerated dosage (MTD)” value ([11]; liposarcoma, MTD not reached) was greater than 4250 mg and the Kp [12] was 2 to 3. It also gave a Kp at 0.5 h ([12]; 250 mg/kg) of 2.08 ± 0.5, a Kp at 1 h ([12]; 250 mg/kg) of 2.35 ± 0.34 and a Kp at 3 h ([12]; 250 mg/kg) of 2.24 ± 0.59. For the same molecule, the Kp at 6 h ([12]; 250 mg/kg) was 1.81 ± 0.19, the Kp at 9 h ([12]; 250 mg/kg) was 2.33 ± 0.28 and the Kp at 0.5 h ([12]; 750 mg/kg) was 2.07 ± 0.42. It also gave a Kp at 1 h ([12]; 750 mg/kg) of 3.11 ± 0.82, a Kp at 3 h ([12]; 750 mg/kg) of 2.83 ± 0.33 and a Kp at 6 h ([12]; 750 mg/kg) of 3.22 ± 0.63. It also gave a Kp at 9 h ([12]; 750 mg/kg) of 2.61 ± 0.08, a Tpeak ([13]; Monkey 1, healthy) of 6.00 h and a Tpeak ([13]; Monkey 2, healthy) of 4.00 h. It also gave a Cmax ([13]; oral, average maximum plasma concentration (Cmax), two healthy rhesus macaques) of 3.2 µM, an AUC ([13]; po, AUCon, Monkey 1, healthy) of 28.4 µM·h and an AUC ([13]; po, AUCon, Monkey 2, healthy) of 10.6 µM·h. For the same molecule, the AUC ([13]; po, AUCtot, Monkey 1, healthy) was 28.4 µM·h, the AUC ([13]; po, AUCtot, Monkey 2, healthy) was 10.7 µM·h and the Cmax ([13]; po, Cmax, Monkey 1, healthy) was 5.33 µM. It also gave a Cmax ([13]; po, Cmax, Monkey 2, healthy) of 1.07 µM, an MRT ([13]; po, Monkey 1, healthy) of 7.25 h and an MRT ([13]; po, Monkey 2, healthy) of 12 h. The half-life ([13]; po, t1/2, Monkey 1, healthy) was 4.46 h, the half-life ([13]; po, t1/2, Monkey 2, healthy) was 6.92 h and the “time at which Cmax was achieved after dosing” value ([13]; two healthy rhesus macaques) was 5 h.
In the case of CC(C)C(=O)OC[C@H]1O[C@@H](n2ccc(NO)nc2=O)[C@H](O)[C@@H]1O [molnupiravir], the “decrease of the risk of hospitalization or death” value (SARS-CoV-2 [1]; MOVe-OUT, non-hospitalized patients) is listed as 48%.
In the case of CC(C)(C)[C@H](NC(=O)C(F)(F)F)C(=O)N1C[C@H]2[C@@H]([C@H]1C(=O)N[C@H](C#N)C[C@@H]1CCNC1=O)C2(C)C [nirmatrelvir], the “decrease of the probability of hospitalization or mortality” value (SARS-CoV-2 [1]; EPIC-HR, non-hospitalized adults at high risk) is listed as 89% and the “rate of hospitalization owing to COVID-19 among treated patients” value (SARS-CoV-2 [1]; patients aged 40 to 64 years, Israel, omicron, untreated 15.8) is listed as 15.2 instances per 100,000 person-days.
In the case of Cc1cc(S(=O)(=O)c2c([N+](=O)[O-])cc(C(F)(F)F)cc2[N+](=O)[O-])c(Cl)cc1Cl [D3F], the IC50 (M^pro) is listed as 0.3 µM.
For CC(C)(C)NC(=O)[C@@H](c1cccnc1)N(C(=O)c1ccco1)c1ccc(C(C)(C)C)cc1 [0EN], the IC50 (M^pro) is listed as 4.8 µM.
In the case of O=C(Sc1n[nH]c(C(F)(F)F)n1)c1ccc(C#Cc2ccccc2)o1 [F3F], the IC50 (M^pro) is given as 3 µM.
For CCOC(=O)CC[C@H](C[C@@H]1CCNC1=O)NC(=O)[C@H](CC=C(C)C)CC(=O)[C@@H](NC(=O)[C@H](CO)NC(=O)OC(C)(C)C)C(C)C [CYV], the IC50 (M^pro) is listed as 80 µM.
